SMILES strings stand for the structures.

From ChEMBL document CHEMBL1157046, “QSAR modeling of taxane analogues against colon cancer” (Eur J Med Chem, 2010) come the findings set out here.

This assay concerns HT-29. In words: Cytotoxicity against human HT-29 cells. The assay is classed as functional, cell-based.

Broadly, the IC50 is the point on the concentration scale where inhibition reaches its midpoint. Low readings indicate greater potency in that assay, high ones weaker potency in that assay. In the case of `CC(=O)O[C@H]1C(=O)[C@@]2(C)[C@H]([C@H](OC(=O)c3ccccc3)[C@]34OC(=O)O[C@H]3[C@H](OC(=O)[C@H](O)[C@H](CC(C)C)NC(=O)C(C)(C)C)C(C)=C1C4(C)C)[C@]1(OC(C)=O)CO[C@@H]1C[C@@H]2O`, the half-inhibitory concentration (IC50) was 1.51 nM.

The compound `CCC(C)(C)OC(=O)N[C@@H](c1ccccc1)[C@@H](O)C(=O)O[C@H]1C[C@@]2(O)[C@@H](OC(=O)c3ccccc3)[C@@H]3[C@]4(OC(C)=O)CO[C@@H]4C[C@H](O)[C@@]3(C)[C@@H](O)[C@H](OC(C)=O)C(=C1C)C2(C)C` showed an IC50 of 0.000776 nM. Under `C/C=C/[C@H](NC(=O)C(C)(C)C)[C@@H](O)C(=O)O[C@@H]1C(C)=C2[C@@H](O)C(=O)[C@@]3(C)[C@H]([C@H](OC(=O)c4ccccc4)[C@@]4(OC(=O)O[C@@H]14)C2(C)C)[C@]1(OC(C)=O)CO[C@@H]1C[C@@H]3O` stands 1.91 nM; under `CCCCCC(=O)N[C@@H](C=C(C)C)[C@@H](O)C(=O)O[C@@H]1C(C)=C2[C@@H](OC(=O)C3CC3)C(=O)[C@@]3(C)[C@H]([C@H](OC(=O)c4ccccc4)[C@@]4(OC(=O)O[C@@H]14)C2(C)C)[C@]1(OC(C)=O)CO[C@@H]1C[C@@H]3O`, 15.8 nM. To `C/C=C/C(=O)O[C@H]1C(=O)[C@@]2(C)[C@H]([C@H](OC(=O)c3ccccc3)[C@]34OC(=O)O[C@H]3[C@H](OC(=O)[C@H](O)[C@H](C=C(C)C)NC(=O)CCCCC)C(C)=C1C4(C)C)[C@]1(OC(C)=O)CO[C@@H]1C[C@@H]2O` belongs 28.2 nM. For the compound `C/C=C/[C@H](NC(=O)C(C)(C)C)[C@@H](O)C(=O)O[C@@H]1C(C)=C2[C@@H](OC(C)=O)C(=O)[C@@]3(C)[C@H]([C@H](OC(=O)c4ccccc4)[C@@]4(OC(=O)O[C@@H]14)C2(C)C)[C@]1(OC(C)=O)CO[C@@H]1C[C@@H]3O`, it took 3.02 nM to reach half-maximal inhibition (IC50).

For `CCC(=O)O[C@H]1C(=O)[C@@]2(C)[C@H]([C@H](OC(=O)c3ccccc3)[C@]34OC(=O)O[C@H]3[C@H](OC(=O)[C@H](O)[C@H](C=C(C)C)NC(=O)C(C)(C)C)C(C)=C1C4(C)C)[C@]1(OC(C)=O)CO[C@@H]1C[C@@H]2O`, the IC50 is 0.603 nM. Compound `CC(=O)O[C@H]1C(=O)[C@@]2(C)[C@H]([C@H](OC(=O)c3ccccc3)[C@]34OC(=O)O[C@H]3[C@H](OC(=O)[C@H](O)[C@@H](NC(=O)C(C)(C)C)c3ccco3)C(C)=C1C4(C)C)[C@]1(OC(C)=O)CO[C@@H]1C[C@@H]2O` gave a half-inhibitory concentration (IC50) of 0.603 nM. Under `CC(=O)O[C@@]12CO[C@@H]1C[C@H](O)[C@@]1(C)C(=O)[C@H](O)C3=C(C)[C@@H](OC(=O)[C@H](O)[C@H](C=C(C)C)NC(=O)C(C)(C)C)[C@@H]4OC(=O)O[C@]4([C@@H](OC(=O)c4ccccc4)[C@H]21)C3(C)C` stands 0.501 nM.

Compound `CC(=O)O[C@@H]1C2=C(C)[C@@H](OC(=O)[C@H](O)[C@@H](NC(=O)OC(C)(C)C)c3ccccc3)C[C@@](O)([C@@H](OC(=O)c3ccccc3)[C@@H]3[C@]4(OC(C)=O)CO[C@@H]4C[C@H](O)[C@@]3(C)[C@H]1O)C2(C)C` had an IC50 of 0.000186 nM. Under `CC(=O)O[C@@H]1C2=C(C)[C@@H](OC(=O)[C@H](O)[C@@H](NC(=O)CC(C)(C)C)c3ccccc3)C[C@@](O)([C@@H](OC(=O)c3ccccc3)[C@@H]3[C@]4(OC(C)=O)CO[C@@H]4C[C@H](O)[C@@]3(C)[C@H]1O)C2(C)C` stands 0.0105 nM; under `CC(=O)O[C@@H]1C2=C(C)[C@@H](OC(=O)[C@H](O)[C@@H](NC(=O)OCC(C)(C)C)c3ccccc3)C[C@@](O)([C@@H](OC(=O)c3ccccc3)[C@@H]3[C@]4(OC(C)=O)CO[C@@H]4C[C@H](O)[C@@]3(C)[C@H]1O)C2(C)C`, 0.00174 nM. To `CC(=O)O[C@@H]1C2=C(C)[C@@H](OC(=O)[C@H](O)[C@@H](NC(=O)OC(C)C)c3ccccc3)C[C@@](O)([C@@H](OC(=O)c3ccccc3)[C@@H]3[C@]4(OC(C)=O)CO[C@@H]4C[C@H](O)[C@@]3(C)[C@H]1O)C2(C)C` belongs 0.000955 nM. To `CC(=O)O[C@H]1C(=O)[C@@]2(C)[C@H]([C@H](OC(=O)c3ccccc3)[C@]34OC(=O)O[C@H]3[C@H](OC(=O)[C@H](O)[C@H](C=C(C)C)NC(=O)C(C)(C)C)C(C)=C1C4(C)C)[C@]1(OC(C)=O)CO[C@@H]1C[C@@H]2O` belongs 2.4 nM. `CC(=O)O[C@@]12CO[C@@H]1C[C@H](O)[C@@]1(C)C(=O)[C@H](OC(=O)C3CC3)C3=C(C)[C@@H](OC(=O)[C@H](O)[C@H](C=C(C)C)NC(=O)C(C)(C)C)[C@@H]4OC(=O)O[C@]4([C@@H](OC(=O)c4ccccc4)[C@H]21)C3(C)C` gave an IC50 of 1 nM.

Take `CC(=O)O[C@@]12CO[C@@H]1C[C@H](O)[C@@]1(C)C(=O)[C@H](O)C3=C(C)[C@@H](OC(=O)[C@H](O)[C@@H](NC(=O)C(C)(C)C)c4ccco4)[C@@H]4OC(=O)O[C@]4([C@@H](OC(=O)c4ccccc4)[C@H]21)C3(C)C`: the IC50 was 0.603 nM. To `COC(=O)O[C@H]1C(=O)[C@@]2(C)[C@H]([C@H](OC(=O)c3ccccc3)[C@]34OC(=O)O[C@H]3[C@H](OC(=O)[C@H](O)[C@H](C=C(C)C)NC(=O)C(C)(C)C)C(C)=C1C4(C)C)[C@]1(OC(C)=O)CO[C@@H]1C[C@@H]2O` belongs 0.708 nM; to `CCOC(=O)N[C@@H](c1ccccc1)[C@@H](O)C(=O)O[C@H]1C[C@@]2(O)[C@@H](OC(=O)c3ccccc3)[C@@H]3[C@]4(OC(C)=O)CO[C@@H]4C[C@H](O)[C@@]3(C)[C@@H](O)[C@H](OC(C)=O)C(=C1C)C2(C)C`, 0.00603 nM; to `CC(=O)O[C@@H]1C2=C(C)[C@@H](OC(=O)[C@H](O)[C@@H](NC(=O)NC(C)(C)C)c3ccccc3)C[C@@](O)([C@@H](OC(=O)c3ccccc3)[C@@H]3[C@]4(OC(C)=O)CO[C@@H]4C[C@H](O)[C@@]3(C)[C@H]1O)C2(C)C`, 0.00661 nM. On to `C/C=C/C(=O)O[C@H]1C(=O)[C@@]2(C)[C@H]([C@H](OC(=O)c3ccccc3)[C@]34OC(=O)O[C@H]3[C@H](OC(=O)[C@H](O)[C@H](C=C(C)C)NC(=O)C(C)(C)C)C(C)=C1C4(C)C)[C@]1(OC(C)=O)CO[C@@H]1C[C@@H]2O`, for which it took 1.51 nM to reach half-maximal inhibition (IC50). Under `CCC(=O)O[C@H]1C(=O)[C@@]2(C)[C@H]([C@H](OC(=O)c3cccc(N=[N+]=[N-])c3)[C@]3(O)C[C@H](OC(=O)[C@H](O)[C@@H](CC(=O)OC(C)(C)C)C(F)(F)F)C(C)=C1C3(C)C)[C@]1(OC(C)=O)CO[C@@H]1C[C@@H]2O` stands 0.398 nM; under `CC(=O)O[C@@H]1C2=C(C)[C@@H](OC(=O)[C@H](O)[C@@H](NC(=O)c3ccc(C)cc3)c3ccccc3)C[C@@](O)([C@@H](OC(=O)c3ccccc3)[C@@H]3[C@]4(OC(C)=O)CO[C@@H]4C[C@H](O)[C@@]3(C)[C@H]1O)C2(C)C`, 0.0138 nM; under `CC(=O)O[C@@H]1C2=C(C)[C@@H](OC(=O)[C@H](O)[C@@H](NC(=O)OCc3ccccc3)c3ccccc3)C[C@@](O)([C@@H](OC(=O)c3ccccc3)[C@@H]3[C@]4(OC(C)=O)CO[C@@H]4C[C@H](O)[C@@]3(C)[C@H]1O)C2(C)C`, 0.0135 nM. Turning to `CC(=O)O[C@@]12CO[C@@H]1C[C@H](O)[C@@]1(C)C(=O)[C@H](OC(=O)N(C)C)C3=C(C)[C@@H](OC(=O)[C@H](O)[C@H](C=C(C)C)NC(=O)C(C)(C)C)[C@@H]4OC(=O)O[C@]4([C@@H](OC(=O)c4ccccc4)[C@H]21)C3(C)C`, the IC50 is 1.2 nM.
